{
  "source": "patent US12012396B2",
  "about": "“HDAC inhibitor solid state forms” (Viracta Subsidiary, Inc., priority 2020, dated 2024)",
  "assay_type_in_all_cases": "physicochemical",
  "key": {"[1]": {"assay": "Thermodynamic aqueous solubility", "conditions": "for pH of saturated solution: water, after 24 hours equilibration", "description": "Aqueous solubility was determined by suspending sufficient compound in 0.5 ml deionized water to give a maximum final concentration of 40 mg/mi of the parent free-form of the compound. The suspension was equilibrated at 25° C., on a Heidolph plate shaker set to 750 rpm for 24 hours. After equilibration, the appearance was noted and the pH of the saturated solution was measured. Samples forming suspensions were centrifuged for 4 min at 13,500 rpm. Samples were then filtered through a glass fiber C filter (particle retention 1.2 μm), before dilution with H2O as appropriate.\nQuantitation was by HPLC (see Table 2 for parameters) with reference to a standard solution of approximately 0.15 mg/ml in DMSO. Different volumes of the standard, diluted and undiluted sample solutions were injected. The solubility was calculated using the peak areas determined by integration of the peak found at the same retention time as the principal peak in the standard injection. Analysis was performed on an AgilentHPl 100/Infinity II 1260 series system equipped with a diode array detector and using OpenLAB software."}, "[2]": {"assay": "Static storage stability at elevated temperature/humidity (XRPD, HPLC purity)", "description": "XRPD diffractograms were collected on a Bruker D8 diffractometer using Cu Kα, radiation (40 kV, 40 mA) and a 0-20 goniometer fitted with a Ge monochromator. The incident beam passes through a 2.0 mm divergence slit followed by a 0.2 mm anti-scatter slit and knife edge. The diffracted beam passes through an 8.0 mm receiving slit with 2.5° Soller slits followed by the Lynxeye Detector. The software used for data collection and analysis was Diffrac Plus XRD Commander and Diffrac Plus EVA respectively.\nXRPD diffractograms were collected on a PANalytical Empyrean diffractometer using Cu Kα, radiation (45 kV, 40 mA) in transmission geometry. A 0.5° slit, 4 mm mask and 0.04 rad Soller slits with a focusing mirror were used on the incident beam. A PIXcel3D detector, placed on the diffracted beam, was fitted with a receiving slit and 0.04 rad Soller slits. The software used for data collection was X'Pert Data Collector using X'Pert Operator Interface. The data were analyzed and presented using Diffrac Plus EVA or HighScore Plus.\nPurity analysis was performed on an AgilentHP1100/Infinity 111260 series system equipped with a diode array detector and using OpenLAB software."}, "[3]": {"assay": "Gravimetric Vapour Sorption (GVS)", "conditions": "for XRPD post-GVS: residue after GVS", "description": "Sorption isotherms were obtained using a SMS DVS Intrinsic moisture sorption analyser, controlled by DVS Intrinsic Control software. The sample temperature was maintained at 25° C. by the instrument controls. The humidity was controlled by mixing streams of dry and wet nitrogen, with a total flow rate of 200 ml/min. The relative humidity was measured by a calibrated Rotronic probe (dynamic range of 1.0-100% RH), located near the sample. The weight change, (mass relaxation) of the sample as a function of % RH was constantly monitored by a microbalance (accuracy ±0.005 mg). Typically, 20-30 mg of sample was placed in a tared mesh stainless steel basket under ambient conditions. The sample was loaded and unloaded at 40% RH and 25° C. (typical room conditions). A moisture sorption isotherm was performed as outlined below (2 scans per complete cycle). The standard isotherm was performed at 25° C. at 10% RH intervals over a 0-90% RH range. Typically, a double cycle (4 scans) was carried out. Data analysis was carried out within Microsoft Excel using the DVS Analysis Suite. [table]"}, "physchem": {"assay": "physchem", "conditions": "for solubility thermodynamic: thermodynamic from solid", "excerpt": "There was insufficient residue to characterize these further."}, "[4]": {"assay": "Competitive slurries of anhydrous and hydrated forms in different water activity", "description": "Competitive slurries of the anhydrous and hydrated forms in different water activity at 50° C. and 5° C. were used to determine the thermodynamic stability relationships."}, "[5]": {"conditions": "7 days / 1 week at 25° C./97% RH"}, "[6]": {"conditions": "7 days / 1 week at 40° C./75% RH"}},
  "note": "Entries after “also recorded” stand apart in the source; their conditions may differ.",
  "data": [
    {"compound": "O=C(NO)c1cnc(N2C[C@@H]3[C@H](C2)[C@H]3NCc2ccc3cc(F)ccc3n2)nc1", "note": "[Compound 1, N-hydroxy-2-{6-[(6-fluoro-quinolin-2-ylmethyl)-amino]-3-aza-bicyclo[3.1.0]hex-3-yl}pyrimidine-5-carboxamide]", "values": [
      {"measurement": "Solubility in water", "setting": "[1]; deionized water, 25° C., 24 hours, maximum final concentration 40 mg/ml, listed as Free base", "value": "essentially insoluble"}
    ]},
    {"compound": "O=C(NO)c1cnc(N2C[C@@H]3[C@H](C2)[C@H]3NCc2ccc3cc(F)ccc3n2)nc1", "note": "[Free Base Form A, N-hydroxy 2-{6-[(6-fluoro-quinolin-2-ylmethyl)-amino]-3-aza-bicyclo[3.1.0]hex-3-yl}pyrimidine-5-carboxamide]", "values": [
      {"measurement": "pH of saturated solution", "setting": "[1]", "value": "(pH = 7.4)"}
    ]},
    {"compound": "O=C(NO)c1cnc(N2C[C@@H]3[C@H](C2)[C@H]3NCc2ccc3cc(F)ccc3n2)nc1", "note": "[Free Base Form B, N-hydroxy 2-{6-[(6-fluoro-quinolin-2-ylmethyl)-amino]-3-aza-bicyclo[3.1.0]hex-3-yl}pyrimidine-5-carboxamide]", "values": [
      {"measurement": "pH of saturated solution", "setting": "[1]", "value": "(pH = 7.4)"}
    ]},
    {"compound": "O=C(NO)c1cnc(N2C[C@@H]3[C@H](C2)[C@H]3NCc2ccc3cc(F)ccc3n2)nc1", "note": "[Mesylate Form 1, N-hydroxy 2-{6-[(6-fluoro-quinolin-2-ylmethyl)-amino]-3-aza-bicyclo[3.1.0]hex-3-yl}pyrimidine-5-carboxamide]", "values": [
      {"measurement": "pH of saturated solution", "setting": "[1]", "value": "(pH = 3.2)"},
      {"measurement": "Purity after static storage", "setting": "[2]; 14 weeks at 25° C./97% RH", "value": 93.5, "unit": "%"},
      {"measurement": "Solid form by XRPD after static storage", "setting": "[2]; 14 weeks at 25° C./97% RH", "value": "Mesylate Form 1"},
      {"measurement": "Purity after static storage", "setting": "[2]; 14 weeks at 40° C./75% RH", "value": "Form 2 (94.7% purity)"},
      {"measurement": "HPLC purity after static storage", "setting": "[2]; [5]", "value": "no significant drop in purity"},
      {"measurement": "Solid form by XRPD after static storage", "setting": "[2]; [5]", "value": "unchanged; also recorded: No change, Mesylate Form 1"},
      {"measurement": "HPLC purity after static storage", "setting": "[2]; [6]", "value": "no significant drop in purity"},
      {"measurement": "Solid form by XRPD after static storage", "setting": "[2]; [6]", "value": "unchanged; also recorded: No change, Mesylate Form 1"},
      {"measurement": "Hygroscopicity by GVS", "setting": "[3]; 25° C.", "value": "RH: Slightly hygroscopic."},
      {"measurement": "XRPD post-GVS", "setting": "[3]", "value": "no change; also recorded: XRPD remains unchanged"},
      {"measurement": "solubility thermodynamic", "setting": "physchem; fassgf or other biorelevant, Thermodynamic solubility in FaSSGF", "value": 21000, "unit": "µg/mL"},
      {"measurement": "solubility thermodynamic", "setting": "physchem; fassif, Thermodynamic solubility in FaSSIF", "value": 1900, "unit": "µg/mL"},
      {"measurement": "solubility thermodynamic", "setting": "physchem; fessif, Thermodynamic solubility in FeSSIF", "value": 340, "unit": "µg/mL"},
      {"measurement": "Water activity up to which the form was the most stable", "setting": "[4]; competitive slurries at 5° C.", "value": "≥ 0.3", "unit": "aw"},
      {"measurement": "Water activity up to which the form was the most stable", "setting": "[4]; competitive slurries at 50° C.", "value": 0.6, "unit": "aw"}
    ]},
    {"compound": "O=C(NO)c1cnc(N2C[C@@H]3[C@H](C2)[C@H]3NCc2ccc3cc(F)ccc3n2)nc1", "note": "[Mesylate Form 3, N-hydroxy 2-{6-[(6-fluoro-quinolin-2-ylmethyl)-amino]-3-aza-bicyclo[3.1.0]hex-3-yl}pyrimidine-5-carboxamide]", "values": [
      {"measurement": "Solid form by XRPD after static storage", "setting": "[2]; [5]", "value": "unchanged; also recorded: Mesylate Form 3"},
      {"measurement": "Solid form by XRPD after static storage", "setting": "[2]; 7 days / 1 week at 25° C./97% RH, listed as Form 3", "value": "remained as Mesylate Form 3"},
      {"measurement": "Solid form by XRPD after static storage", "setting": "[2]; [6]", "value": "conversion to Mesylate Form 5"},
      {"measurement": "Solid form by XRPD after static storage", "setting": "[2]; 7 days / 1 week at 40° C./75% RH, listed as Form 3", "value": "convert to Mesylate Form 5"},
      {"measurement": "Water content after desorption", "setting": "[3]; desorption cycle 1 down to 30% RH", "value": 24.30, "unit": "%"},
      {"measurement": "Water loss, desorption cycle 1", "setting": "[3]; from 30-20% RH", "value": "Desorption Cycle 1 22%"},
      {"measurement": "XRPD post-GVS", "setting": "[3]", "value": "XRPD Post-GVS: Poorly crystalline broad"},
      {"measurement": "Solubility residue pattern in FaSSGF", "setting": "physchem", "value": "new solubility residue patterns"}
    ]},
    {"compound": "O=C(NO)c1cnc(N2C[C@@H]3[C@H](C2)[C@H]3NCc2ccc3cc(F)ccc3n2)nc1", "note": "[Mesylate Form 5, N-hydroxy 2-{6-[(6-fluoro-quinolin-2-ylmethyl)-amino]-3-aza-bicyclo[3.1.0]hex-3-yl}pyrimidine-5-carboxamide]", "values": [
      {"measurement": "Solid form by XRPD after static storage", "setting": "[2]; [5]", "value": "remained as Mesylate Form 5; also recorded: Unchanged: Mesylate Form 5"},
      {"measurement": "Solid form by XRPD after static storage", "setting": "[2]; [6]", "value": "remained as Mesylate Form 5; also recorded: Unchanged: Mesylate Form 5"},
      {"measurement": "XRPD post-GVS", "setting": "[3]", "value": "unchanged; also recorded: stable; also recorded: XRPD Post-GVS: Mesylate Form 5"},
      {"measurement": "Solubility residue pattern in FaSSGF", "setting": "physchem", "value": "new solubility residue patterns"}
    ]}
  ]
}
